A short description of test [1]: Examination 4: body weight of chicks raised until 35 days old after feeding GSSG or GSH for 3 days. Type of test: in vivo, broiler chicks. Conditions: 0.01% by mass additive in feed for 3 days; n = 6, average ± standard deviation. The protocol: Newly hatched broiler chicks (Ross Breeders Ltd.) were tested. A control group (=additive-free group), a GSSG addition group (0.01% by mass), and a GSH addition group (0.01% by mass) each consisting of 5 males and 5 females were set and fed with a feed composition for 3 days. […] At this timing, 2 males and 2 females in each group were slaughtered to collect blood and skeletal muscles. The gene expression levels of the MyoD family (myogenin, myostatin, and Pax7) were observed. […] Statistics were analyzed using a mixed model in consideration of a gender difference and an interaction between males and females. An ammonium salt was used as oxidized glutathione (GSSG). The GSSG contained 95.6% by mass of oxidized glutathione, and the content of reduced glutathione mixed therein was 0.1% by mass or less. […] A feed composition, for which the amount of oxidized glutathione (GSSG) added was set to 0.01% by mass, is described in Examination 1. A feed composition, for which the amount of reduced glutathione (GSH) added was set to 0.01% by mass, was prepared by adding 0.01% by mass of GSH, instead of 0.01% by mass of GSSG, to the GSSG-containing feed composition described in detail in Examination 1.

A further test concerns myogenin. Kind of test: Examination 4: myogenin gene expression in superficial pectoral muscle at 3 days old. It counts as in vivo, broiler chicks. The settings on record: 0.01% by mass additive in feed for 3 days, FIG. 3A, n=4. The protocol: FIGS. 3A to 3C illustrate graphs showing the expression of genes related to skeletal muscle cell differentiation in superficial pectoral muscles upon administration of each feed composition in Examination 4 (n=4). […] A relative value of the expression level of each factor is expressed as an average±standard deviation of values obtained by dividing the expression levels of each factor by the expression level of RPS9. Newly hatched broiler chicks (Ross Breeders Ltd.) were tested. A control group (=additive-free group), a GSSG addition group (0.01% by mass), and a GSH addition group (0.01% by mass) each consisting of 5 males and 5 females were set and fed with a feed composition for 3 days. […] At this timing, 2 males and 2 females in each group were slaughtered to collect blood and skeletal muscles. The gene expression levels of the MyoD family (myogenin, myostatin, and Pax7) were observed. […] Statistics were analyzed using a mixed model in consideration of a gender difference and an interaction between males and females. A method for determining gene expressions of the above factors in skeletal muscles is described above. An ammonium salt was used as oxidized glutathione (GSSG). The GSSG contained 95.6% by mass of oxidized glutathione, and the content of reduced glutathione mixed therein was 0.1% by mass or less. […]

For `N[C@@H](CCC(=O)N[C@@H](CS)C(=O)NCC(=O)O)C(=O)O` [GSH, N—(N-γ-L-glutamyl-L-cysteinyl)glycine, reference compound], in test [1], the “Weight, 14 days old” value came to 512.7 ± 79.8 g and the “Weight, 35 days old” value amounted to 2052 ± 267 g. In the test on myogenin, the “myogenin expression level vs control group” value was “smaller than the decrease”.

(Values after patent US20180271930A1, “METHOD FOR RAISING POULTRY” (priority 2015, published 2018).)
